Test results: US20090111868A1 (priority 2004, published 2009)
pIC50: −log10 of the molar value. “Also recorded” adds a separate entry of the source. Where two headings read alike, the source gives them in different places.

Assays:
rat stroke models = settings: cited from earlier work
[1] = molecular target: maxi-K potassium channels (Homo sapiens, UniProt Q12791); settings: cited from earlier work
[2] = not told; cited from earlier work
maxi-K channels = maxi-K channels (Homo sapiens, UniProt Q12791); settings: applied to the cytoplasmic side; cited from earlier work
BKCa channel [3] = molecular target: T1, BKCa channel (Sus scrofa, UniProt O18866); settings: cited from earlier work
T1 construct: host or cells: porcine coronary artery cells (endogenous)

Cl^− channel = settings: cited from earlier work
BKCa channel (mSlo) = molecular target: T2, BKCa channel (mSlo) (Mus musculus, UniProt Q08460); assay: Whole cell patch clamp of BKCa channel in stably transfected mSlo HEK293 cells; format: cell-based, murine
T2 construct: expressed in transfected cells
Description: (A-B) Representative current traces from whole cell patch with 5 mM EGTA in patch pipette. […] Voltage steps are shown at the right of each tracing; note different maximum voltage steps +200 mV (upper) vs. +120 mV (lower). […] Tail currents are in opposite direction due to final voltage step (+60 upper, −60 mV left). (C) G-V curves were constructed for indicated conditions utilizing tail analysis (Xia, et al., Multiple regulatory sites in large-conductance calcium-activated potassium channels. Nature, 2002. 418(6900):880-4). Solid lines were fitted with Boltzmann function (Origin 7.5). […] Representative of>30 similar experiments with rat and murine (pictured) s1o. (D-E) Stable mslo HEK293 cells were studied in whole cell configuration with pipette solution containing 5 mM EGTA (˜0 free Ca^2+).
(§1) Current was monitored with ramp protocol; holding potential −60 mV, with ramp from −80 mV to +150 mV over 500 ms. Extracellular application of NS-1619 (10 μM) increased current as previously described (Olesen, et al., Selective activation of Ca(2+)-dependent K+channels by novel benzimidazolone. Eur. J. Pharmacol., 1994. 251(1):53-9). […] Analysis performed using tail analysis with normalization as previously described (Xia, et al., Multiple regulatory sites in large-conductance calcium-activated potassium channels. Nature, 2002. 418(6900):880-4). (B) HEK cells co-expressing α and β1 subunits were studied in whole cell configuration with 5 mM EGTA (intra-pipette). […] (C) Human VSMC were studied in outside-out configuration, utilizing single channel recordings, recorded at +60 mV. […] Identification of the BKCa channel was determined by conductance and inhibition by iberiotoxin and TEA. […] Murine femoral arterial rings from were isolated and placed in a wire myograph. […] Figure representative of 4 similar experiments. Error bars are SEM; * p<0.001.

hypertensive rat model = hypertensive rat model compared to controls; cited from earlier work
[4] = tested on: porcine coronary myocytes; settings: 30 μM; through ryanodine receptor sensitive storage sites; cited from earlier work
Ca^2+ channel = settings: cited from earlier work
[5] = tested on: Murine femoral arterial rings; assay: Phenylephrine induced constriction of femoral arterial rings, wire myograph; format: cell-based
Description: as §1

BKCa channel [6] = molecular target: BKCa channel (Mus musculus, UniProt Q08460); assay: Single channel recordings of BKCa channel, outside-out and inside-out patches (cell-free configuration); format: biochemical; settings: for inhibition of rottlerin channel activation: not shown
Description: Amplitude histograms are shown on the right. […] Ca^2+ was maintained at 0 (virtual; actual<20 nM) through dialysis using patch pipette. Since cellular compartments are excluded from patch and outside-out patch perfused locally with 0 Ca^2+, activation is Ca^2+-independent. […] Amplitude histograms are shown on the right.

3T3-L1 adipocytes = settings: read-out: IC50, inhibition of insulin-induced glucose uptake; cited from earlier work
PKCδ [7] = molecular target: T3, PKCδ (Homo sapiens, UniProt Q05655); settings: rottlerin 20 μM; 0.1 mM (or 0.01 mM) ATP; phosphatidylserine; histone H1 or myelin basic protein substrate; cited from earlier work
[8] = molecular target: T4, BKCa channel mSlo and β1 subunit (Mus musculus, UniProt Q08460); assay: Whole cell recording in HEK cells co-expressing α and β1 subunits; format: cell-based, murine
T4 construct: expressed in transfected cells; host or cells: HEK293
Description: as §1

PKCδ [9] = molecular target: T3, PKCδ; settings: more recent data; cited from earlier work
PKCδ [10] = molecular target: T3, PKCδ; settings: read-out: IC50 for PKCδ; in vitro; cited from earlier work
other PKC isozymes = settings: in vitro; cited from earlier work
casein kinase II = casein kinase II (Homo sapiens, UniProt P68400); settings: read-out: IC50 for casein kinase II; in vitro; cited from earlier work
rats = settings: purified rottlerin 10-20 mg/kg/day × 6 days; cited from earlier work
PKA = PKA (Homo sapiens, UniProt P17612); settings: read-out: IC50 for PKA; in vitro; cited from earlier work
[11] = tested on: canine subarachnoid hemorrhage model; settings: rottlerin 5 μM injected into the cistema magna; cited from earlier work
BKCa channels [12] = molecular target: T5, BKCa channels (Homo sapiens, UniProt Q12791); assay: Single channel recordings (outside-out) in human VSMC; format: cell-based; design: endogenous in cells; host or cells: human vascular smooth muscle cells (VSMC) grown in vitro; settings: recorded at +60 mV
Description: as §1

[13] = molecular target: T6, glutamate-aspartate transporter (GLAST) (Homo sapiens, UniProt P43003); settings: cited from earlier work
T6 construct: host or cells: astrocytes (from the cited title only)

PKCα = PKCα (Homo sapiens, UniProt P17252); settings: rottlerin 20 μM; 0.1 mM (or 0.01 mM) ATP; phosphatidylserine; histone H1 or myelin basic protein substrate; cited from earlier work
[14] = tested on: mitochondria in intact cells; settings: cited from earlier work
guinea pigs = settings: purified rottlerin 10-20 mg/kg/day × 6 days; cited from earlier work
BKCa channels [15] = molecular target: T5, BKCa channels; settings: cited from earlier work
Ca^2+ sparks (RyR) = settings: cited from earlier work
[16] = molecular target: BKCa channel α and β subunits (Homo sapiens, UniProt Q12791); settings: α and β subunits co-expressed; cited from earlier work
BKCa channel α and β subunits, sequence (Q12791 whole entry): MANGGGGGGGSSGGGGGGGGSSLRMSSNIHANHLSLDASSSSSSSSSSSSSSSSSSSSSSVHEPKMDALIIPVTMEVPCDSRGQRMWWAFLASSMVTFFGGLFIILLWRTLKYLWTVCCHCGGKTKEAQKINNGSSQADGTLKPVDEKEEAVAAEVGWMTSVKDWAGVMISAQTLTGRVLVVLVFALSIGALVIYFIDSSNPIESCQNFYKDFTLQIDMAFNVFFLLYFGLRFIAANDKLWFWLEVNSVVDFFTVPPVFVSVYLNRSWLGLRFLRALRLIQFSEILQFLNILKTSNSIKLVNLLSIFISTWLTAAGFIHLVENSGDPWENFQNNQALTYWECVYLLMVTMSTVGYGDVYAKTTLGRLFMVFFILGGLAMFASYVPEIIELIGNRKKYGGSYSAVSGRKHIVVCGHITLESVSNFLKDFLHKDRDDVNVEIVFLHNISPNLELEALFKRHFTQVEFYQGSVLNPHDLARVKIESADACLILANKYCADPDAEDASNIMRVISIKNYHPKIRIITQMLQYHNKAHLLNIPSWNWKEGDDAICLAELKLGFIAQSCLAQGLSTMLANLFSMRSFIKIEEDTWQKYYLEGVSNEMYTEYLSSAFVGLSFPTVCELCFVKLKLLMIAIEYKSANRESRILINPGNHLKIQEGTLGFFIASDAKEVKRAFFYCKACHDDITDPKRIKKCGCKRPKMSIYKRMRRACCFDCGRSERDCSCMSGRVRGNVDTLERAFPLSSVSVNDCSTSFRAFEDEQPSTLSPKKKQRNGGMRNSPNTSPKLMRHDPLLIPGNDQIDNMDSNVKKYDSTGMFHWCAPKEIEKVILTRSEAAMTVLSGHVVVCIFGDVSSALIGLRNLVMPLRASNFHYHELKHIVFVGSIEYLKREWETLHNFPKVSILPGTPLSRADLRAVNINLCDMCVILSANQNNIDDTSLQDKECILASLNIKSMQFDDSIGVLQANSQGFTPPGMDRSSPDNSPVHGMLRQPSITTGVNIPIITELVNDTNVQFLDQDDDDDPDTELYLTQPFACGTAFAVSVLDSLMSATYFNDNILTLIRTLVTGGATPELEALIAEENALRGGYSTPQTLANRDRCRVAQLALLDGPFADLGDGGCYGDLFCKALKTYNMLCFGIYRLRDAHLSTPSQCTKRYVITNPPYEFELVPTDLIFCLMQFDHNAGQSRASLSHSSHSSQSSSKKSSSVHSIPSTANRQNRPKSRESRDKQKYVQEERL
BKCa channel α and β subunits, sequence (Q16558 whole entry partner): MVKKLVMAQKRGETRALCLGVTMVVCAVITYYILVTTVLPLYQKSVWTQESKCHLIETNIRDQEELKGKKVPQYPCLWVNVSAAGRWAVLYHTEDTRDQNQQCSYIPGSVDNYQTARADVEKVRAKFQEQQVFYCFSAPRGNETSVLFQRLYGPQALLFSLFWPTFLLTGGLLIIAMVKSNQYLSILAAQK

BKCa channel (Mus musculus, UniProt Q08460), sequence (Q08460 whole entry, the tested form may be a part): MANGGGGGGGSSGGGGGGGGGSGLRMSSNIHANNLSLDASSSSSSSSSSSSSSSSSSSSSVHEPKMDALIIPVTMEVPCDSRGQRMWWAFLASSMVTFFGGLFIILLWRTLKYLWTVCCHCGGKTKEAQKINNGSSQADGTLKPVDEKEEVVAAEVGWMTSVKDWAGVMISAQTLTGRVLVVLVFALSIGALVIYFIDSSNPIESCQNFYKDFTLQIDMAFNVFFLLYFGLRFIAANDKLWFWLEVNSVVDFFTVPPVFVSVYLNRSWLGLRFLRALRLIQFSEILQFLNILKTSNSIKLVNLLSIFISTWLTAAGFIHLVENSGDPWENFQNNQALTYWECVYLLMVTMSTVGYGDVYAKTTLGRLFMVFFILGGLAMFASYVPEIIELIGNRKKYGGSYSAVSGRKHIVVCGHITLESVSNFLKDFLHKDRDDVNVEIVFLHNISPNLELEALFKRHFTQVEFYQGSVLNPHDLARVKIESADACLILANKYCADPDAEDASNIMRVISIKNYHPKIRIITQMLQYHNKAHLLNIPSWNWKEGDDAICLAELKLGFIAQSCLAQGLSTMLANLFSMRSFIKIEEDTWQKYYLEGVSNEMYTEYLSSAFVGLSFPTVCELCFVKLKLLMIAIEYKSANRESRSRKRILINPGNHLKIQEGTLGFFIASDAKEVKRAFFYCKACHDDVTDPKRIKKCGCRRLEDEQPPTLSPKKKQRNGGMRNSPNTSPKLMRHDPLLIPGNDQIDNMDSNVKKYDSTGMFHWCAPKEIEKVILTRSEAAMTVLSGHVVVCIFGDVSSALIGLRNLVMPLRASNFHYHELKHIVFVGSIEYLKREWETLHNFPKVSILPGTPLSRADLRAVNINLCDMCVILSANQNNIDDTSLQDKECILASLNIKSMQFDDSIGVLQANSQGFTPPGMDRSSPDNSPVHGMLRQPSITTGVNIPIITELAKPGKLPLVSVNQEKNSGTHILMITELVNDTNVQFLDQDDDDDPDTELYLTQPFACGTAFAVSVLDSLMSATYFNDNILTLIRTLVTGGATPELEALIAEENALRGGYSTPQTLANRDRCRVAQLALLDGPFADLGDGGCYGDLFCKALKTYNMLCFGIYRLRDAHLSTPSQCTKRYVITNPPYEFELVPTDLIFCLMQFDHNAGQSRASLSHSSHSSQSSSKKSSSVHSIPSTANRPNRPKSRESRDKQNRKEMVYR
T2 sequence (Q08460 whole entry): as the sequence (Q08460 whole entry, the tested form may be a part) above
T1 sequence (O18866 whole entry): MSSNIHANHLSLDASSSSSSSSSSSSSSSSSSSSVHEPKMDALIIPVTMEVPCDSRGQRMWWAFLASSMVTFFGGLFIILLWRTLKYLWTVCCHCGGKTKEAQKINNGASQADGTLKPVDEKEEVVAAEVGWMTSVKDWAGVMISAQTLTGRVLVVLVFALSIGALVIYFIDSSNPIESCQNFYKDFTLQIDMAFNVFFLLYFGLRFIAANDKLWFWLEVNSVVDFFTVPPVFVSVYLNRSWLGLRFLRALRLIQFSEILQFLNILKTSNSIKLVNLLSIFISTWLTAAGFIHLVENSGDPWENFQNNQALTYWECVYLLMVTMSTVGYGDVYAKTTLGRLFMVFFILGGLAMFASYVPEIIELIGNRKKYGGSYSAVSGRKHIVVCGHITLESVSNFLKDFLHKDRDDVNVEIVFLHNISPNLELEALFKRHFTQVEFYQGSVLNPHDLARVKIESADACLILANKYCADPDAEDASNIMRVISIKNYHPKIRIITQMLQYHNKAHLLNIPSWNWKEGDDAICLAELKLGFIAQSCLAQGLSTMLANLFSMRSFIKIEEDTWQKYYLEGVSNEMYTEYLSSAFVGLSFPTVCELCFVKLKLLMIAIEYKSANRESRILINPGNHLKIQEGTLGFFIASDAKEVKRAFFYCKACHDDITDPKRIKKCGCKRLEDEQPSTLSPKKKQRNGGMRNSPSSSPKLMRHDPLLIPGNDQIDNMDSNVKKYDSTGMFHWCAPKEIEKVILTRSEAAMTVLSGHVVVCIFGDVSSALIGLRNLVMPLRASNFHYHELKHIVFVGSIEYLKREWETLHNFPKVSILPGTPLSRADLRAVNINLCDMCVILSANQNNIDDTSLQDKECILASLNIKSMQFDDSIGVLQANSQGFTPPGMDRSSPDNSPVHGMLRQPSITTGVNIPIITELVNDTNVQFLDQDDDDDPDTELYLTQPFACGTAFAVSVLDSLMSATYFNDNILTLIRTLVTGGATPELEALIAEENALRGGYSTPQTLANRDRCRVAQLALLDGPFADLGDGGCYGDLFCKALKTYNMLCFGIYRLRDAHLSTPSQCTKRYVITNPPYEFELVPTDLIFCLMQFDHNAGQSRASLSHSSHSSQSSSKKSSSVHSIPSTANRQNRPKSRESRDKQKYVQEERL
T3 sequence (Q05655 whole entry): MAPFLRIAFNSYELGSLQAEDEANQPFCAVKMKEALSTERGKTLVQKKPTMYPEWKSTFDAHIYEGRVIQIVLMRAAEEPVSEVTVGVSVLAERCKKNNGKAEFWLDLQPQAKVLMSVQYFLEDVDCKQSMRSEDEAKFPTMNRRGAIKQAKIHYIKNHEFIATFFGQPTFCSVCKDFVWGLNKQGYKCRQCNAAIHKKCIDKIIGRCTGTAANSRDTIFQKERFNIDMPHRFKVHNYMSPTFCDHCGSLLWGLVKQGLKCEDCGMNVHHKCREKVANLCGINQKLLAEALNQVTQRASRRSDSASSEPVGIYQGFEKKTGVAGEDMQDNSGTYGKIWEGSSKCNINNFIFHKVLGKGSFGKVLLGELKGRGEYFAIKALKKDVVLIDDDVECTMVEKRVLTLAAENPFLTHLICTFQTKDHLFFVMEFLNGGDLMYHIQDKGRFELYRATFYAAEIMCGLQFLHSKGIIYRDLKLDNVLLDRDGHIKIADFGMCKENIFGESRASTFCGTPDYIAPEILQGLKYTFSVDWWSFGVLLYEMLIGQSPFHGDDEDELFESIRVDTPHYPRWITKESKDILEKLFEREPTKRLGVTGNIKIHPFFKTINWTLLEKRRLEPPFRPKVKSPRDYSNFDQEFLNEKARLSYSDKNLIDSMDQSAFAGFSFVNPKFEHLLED
T5 sequence (Q12791 whole entry): as the sequence (Q12791 whole entry) above
T4 sequence (Q08460 whole entry): as the sequence (Q08460 whole entry, the tested form may be a part) above
T4 sequence (Q16558 whole entry partner): as the sequence (Q16558 whole entry partner) above
maxi-K potassium channels, sequence (Q12791 whole entry): as the sequence (Q12791 whole entry) above
maxi-K channels, sequence (Q12791 whole entry): as above

Molecule: COc1ccc(Cl)cc1[C@]1(F)C(=O)Nc2cc(C(F)(F)F)ccc21 [BMS-204352]
- brain infarct size (rat stroke models): reduction in brain infarct size
- effect on current ([1]; 50 nM intracellular Ca2+): almost no effect
- effect on current ([1]; higher intracellular Ca2+ concentrations): progressively greater increases in current

Molecule: C=C[C@]1(C)C=C2CC[C@@]3(O)C(C)(C)CC[C@H](O)[C@]3(C)C2CC1 (stereo partly shown) [Maxikdiol]
- membrane permeability [2]: limited
- concentration with significant effect on channel (maxi-K channels): 3 to 10 µM
- threshold concentration for channel activation (maxi-K channels): 1 µM

Molecule: O=C(Nc1cccc(C(F)(F)F)c1)Nc1cc(Cl)ccc1O [NS1608]
- effect at higher concentrations (bell shaped) (BKCa channel [3]; 50 μM): inhibitory effect
- concentration of maximum BKCa channel activation (BKCa channel [3]; porcine coronary artery cells): 5 to 10 µM
- minimum effective concentration, BKCa channel activation (BKCa channel [3]; porcine coronary artery cells): 0.5 µM

Molecule: O=c1[nH]c2cc(C(F)(F)F)ccc2n1-c1cc(C(F)(F)F)ccc1O [NS-1619]
- Cl- channel (Cl^− channel): inhibits
- peak K+ current (BKCa channel (mSlo)): activated
- efficacy in mediating vascular relaxation (hypertensive rat model): diminished
- intracellular Ca2+ concentration [4]: increase intracellular Ca^2+ concentration
- Ca2+ channel (Ca^2+ channel): inhibits

Molecule: CC[N+](CC)(CC)CC [TEA, reference compound]
- inhibition of rottlerin induced BKCa activation (BKCa channel (mSlo); TEA 5 mM): reversibly inhibited
- inhibition of the rottlerin mediated effect on contraction ([5]; TEA): inhibited
- inhibition of rottlerin channel activation (BKCa channel [6]): can be inhibited

Molecule: CC(=O)c1c(O)c(C)c(O)c(Cc2c(O)c3c(c(C(=O)/C=C/c4ccccc4)c2O)OC(C)(C)C=C3)c1O [rottlerin, 5,7-dihydroxy-2,2-dimethyl-6-(2,4,6-trihydroxy-3-methyl-5-acetylbenzyl)-8-cinnamoyl-1,2-chromene]
- pIC50 (3T3-L1 adipocytes): 5.00
- effect on PKCδ activity (PKCδ [7]): virtually no effect
- BKCa channel activity on extracellular exposure (BKCa channel (mSlo); 0.5 μM via local perfusion after 25 min intracellular dialysis): significantly increased
- BKCa channel activity/current on intracellular dialysis (BKCa channel (mSlo); 20 μM rottlerin in patch pipette, 5 mM EGTA, over 25 min): minimal effect; also recorded: only a relatively small effect
- tail currents (slowing of deactivation) (BKCa channel (mSlo); after exposure to rottlerin (FIG. 4: 0.5 μM extracellular, 5 mM EGTA in pipette)): significantly prolonged; also recorded: markedly prolonged
- BKCa channel activation on local perfusion (BKCa channel (mSlo); extracellular, pipette 5 mM EGTA (~0 free Ca2+)): activated channel
- current after NS-1619 administration (BKCa channel (mSlo); rottlerin 0.5 μM added after NS-1619 (10 μM), 0 Ca2+): incrementally increased current
- BKCa channel activity (BKCa channel (mSlo); rottlerin ≦100 nM, non-phosphorylated conditions, non-Ca2+ dependent, reversible): dramatically increased
- channel activity ([8]; HEK293 cells expressing both mSlo and β1 subunit): activated the channel
- I-V curve ([8]; rottlerin 0.5 μM, whole cell, 5 mM EGTA intra-pipette): significantly shifted the I-V curve to the left
- blocking PKCδ activity in vitro (PKCδ [9]): ineffective
- pIC50 (PKCδ [10]): 5.22 to 5.52
- pIC50 (other PKC isozymes): 4.00 to 4.52
- effect on phenylephrine mediated contraction ([5]; rottlerin 1 μM): no significant effect
- reduction of phenylephrine mediated contraction ([5]; rottlerin 4 μM): > 50%
- PE induced constriction of the vessel ([5]; rottlerin (0.5 μM), p<0.001, representative of 4 experiments): significantly inhibited
- pIC50 (casein kinase II): 4.00 to 4.52
- fertility rate (rats): reduce the fertility rate
- pIC50 (PKA): 4.00 to 4.52
- cerebral vasospasm [11]: inhibited the initial phase of cerebral vasospasm
- toxic effects [11]: No toxic effects
- Po (BKCa channels [12]; rottlerin (0.5 μM) by local perfusion): significantly increased
- open dwell time (BKCa channels [12]; rottlerin (0.5 βM) by local perfusion): significantly increased
- capacity of GLAST glutamate transporter [13]: decrease the capacity
- effect on PKCα activity (PKCα): virtually no effect
- single channel activity, outside-out patch (BKCa channel [6]; rottlerin 0.5 μM local perfusion to extracellular side, 0 Ca2+ (actual <20 nM)): activation of BKCa
- single channel activity, inside-out patch (BKCa channel [6]; rottlerin 0.5 μM local perfusion, 0 Ca2+): activation of BKCa
- channel conductance (BKCa channel [6]; rottlerin 0.5 μM, amplitude histograms): does not significantly change
- uncoupling of mitochondria ([14]; 10 μM): can uncouple mitochondria
- ATP levels ([14]; PKC independent): reduce ATP levels
- fertility rate (guinea pigs): reduce the fertility rate

Molecule: CC1(C)C[C@@H](O)[C@]2(C)CC[C@]3(C)C(=CC[C@@H]4[C@@]5(C)CC[C@H](O[C@@H]6O[C@H](C(=O)O)[C@@H](O)[C@H](O)[C@H]6O[C@@H]6O[C@H](CO)[C@H](O)[C@H](O)[C@H]6O)[C@](C)(CO)[C@@H]5CC[C@]43C)[C@@H]2C1 [soyasaponin III]
- BKCa channel activation (BKCa channels [15]): activate BKCa channels

Molecule: C[C@@H]1O[C@@H](O[C@H]2[C@H](O[C@H]3[C@H](O[C@H]4CC[C@@]5(C)[C@@H](CC[C@]6(C)[C@@H]5CC=C5[C@@H]7CC(C)(C)C[C@@H](O)[C@]7(C)CC[C@]56C)[C@@]4(C)CO)O[C@H](C(=O)O)[C@@H](O)[C@@H]3O)O[C@H](CO)[C@H](O)[C@@H]2O)[C@H](O)[C@H](O)[C@H]1O [soyasaponin I]
- BKCa channel activation (BKCa channels [15]): activate BKCa channels

Molecule: Ryanodine
- reduction of dilation to forskolin (Ca^2+ sparks (RyR)): 80%

Molecule: dehydrosoyasaponin-I [DHS-I]
- membrane permeability [2]: poor
- BKCa channel activation (BKCa channels [15]): activate BKCa channels
- channel activity [16]: increases channel activity

Molecule: iberiotoxin: inhibitor used to identify the BKCa channel (QFTDVDCSVSKECWSVCKDLFGVDRGKCMGKKCRCYQ; UniProt P24663 1-37, looked up) [reference compound]
- inhibition of rottlerin channel activation (BKCa channel [6]): can be inhibited
